Our source for the Inhibitory activity and IC50 values is ChEMBL document CHEMBL1132090, “Synthesis of a phostone glycomimetic of the endothelin converting enzyme inhibitor phosphoramidon” (Bioorg Med Chem Lett, 1999).

Active and inactive are the calls of the source. The calls are words filed in the database; no cut-off is given here.

Assay [1] can be described thus: Inhibitory activity against thermolysin induced by big ET-1 which inhibited hypertensive effect; active. Type of assay: functional.
The target in assay [2] is T1, Endothelin-converting enzyme 1 (Homo sapiens, UniProt P42892).
T1 sequence (P42892 whole entry): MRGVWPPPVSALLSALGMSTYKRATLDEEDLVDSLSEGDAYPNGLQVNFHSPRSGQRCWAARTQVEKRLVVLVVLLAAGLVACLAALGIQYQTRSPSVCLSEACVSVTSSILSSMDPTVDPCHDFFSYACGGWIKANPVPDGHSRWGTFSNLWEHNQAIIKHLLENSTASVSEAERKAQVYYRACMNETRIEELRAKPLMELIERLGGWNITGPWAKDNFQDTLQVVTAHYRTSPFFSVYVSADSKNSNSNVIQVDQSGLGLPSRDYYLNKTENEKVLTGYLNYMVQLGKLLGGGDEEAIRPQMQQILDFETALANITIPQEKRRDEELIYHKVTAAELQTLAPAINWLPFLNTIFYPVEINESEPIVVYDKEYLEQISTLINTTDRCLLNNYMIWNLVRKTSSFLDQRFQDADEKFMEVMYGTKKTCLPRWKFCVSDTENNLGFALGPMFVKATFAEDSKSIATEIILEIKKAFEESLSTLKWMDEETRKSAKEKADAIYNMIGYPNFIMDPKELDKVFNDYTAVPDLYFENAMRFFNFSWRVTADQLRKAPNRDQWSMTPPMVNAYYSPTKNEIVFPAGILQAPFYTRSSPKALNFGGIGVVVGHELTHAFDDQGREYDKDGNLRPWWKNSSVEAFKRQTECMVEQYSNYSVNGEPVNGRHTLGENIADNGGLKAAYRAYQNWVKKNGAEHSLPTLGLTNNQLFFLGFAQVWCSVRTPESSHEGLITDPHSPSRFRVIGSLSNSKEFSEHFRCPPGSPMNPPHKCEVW
In words: Concentration required to inhibit conversion of […] after deprotection and purification by reverse-phase HPLC. Type of assay: functional.

As for `CC(C)C[C@H](NP(=O)(O)OC1OC(C)C(O)C(O)C1O)C(=O)N[C@@H](Cc1c[nH]c2ccccc12)C(=O)O` (some centres not stated), the Inhibitory activity entry in assay [1] was “Active”.
Take `CC(C)C[C@H](NP1(=O)OC(C)C(O)C(O)C1O)C(=O)N[C@@H](Cc1c[nH]c2ccccc12)C(=O)O` (some centres not stated): inhibition in assay [2] was half-maximal at 5.05 µM (IC50).

By IC50 is commonly meant the midpoint of a concentration-inhibition curve.
